Measured values from paper PMC10165273, “Itch receptor MRGPRX4 interacts with the receptor activity–modifying proteins” (The Journal of Biological Chemistry, 2023).
Read-outs that look alike come from different tables or passages of the source.

Molecular target: T1, MRGPRX4 (Homo sapiens, UniProt Q96LA9)
T1 construct: expressed in transfected cells; host or cells: HEK293T
Assay: IP1 accumulation HTRF assay, MRGPRX4
Type: cell-based
Set-up: key to IP1 Basal / IP1 accumulation with YM (Figure 1c) / response to agonist, MRGPRX4 / IP1 accumulation: % IP1: unstimulated mock-transfected = 0%, fully stimulated MRGPRX4 = 100%
Conditions: for IP1 accumulation (normalized): Supplementary Figure 5d-g

[1] = Tet-On MRGPRX4, over 1pg/cell Normalized, Dox 3300 ng/mL (Fig. S5C)

T1 sequence (Q96LA9 whole entry): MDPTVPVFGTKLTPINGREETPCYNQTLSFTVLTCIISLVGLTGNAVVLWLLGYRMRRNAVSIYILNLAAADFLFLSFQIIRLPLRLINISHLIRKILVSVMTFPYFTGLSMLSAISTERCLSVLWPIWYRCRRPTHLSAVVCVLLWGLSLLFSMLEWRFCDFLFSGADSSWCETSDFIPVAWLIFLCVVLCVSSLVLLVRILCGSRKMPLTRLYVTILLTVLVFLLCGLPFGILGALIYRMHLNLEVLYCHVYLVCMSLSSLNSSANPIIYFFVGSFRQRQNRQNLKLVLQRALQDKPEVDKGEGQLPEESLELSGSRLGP

SMILES: CC(C)[C@H]1CC[C@H](C(=O)N[C@H](Cc2ccccc2)C(=O)O)CC1 [Nateglinide]
- EC50 (Tet-On MRGPRX4 1pg/cell, Dox 3300 ng/mL (Fig. S5B), read-out: IP1 EC50): 9.26 µM
- Emax (Tet-On MRGPRX4 1pg/cell, Dox 3300 ng/mL (Fig. S5B), read-out: IP1 Emax): 34.4%
- Emax (Tet-On MRGPRX4 1pg/cell, Dox 3300 ng/mL (Fig. S5B), read-out: IP1 span): 35.4%
- IP1 Basal (Tet-On MRGPRX4 1pg/cell, No dox (Fig. S5B)): -1.503
- Emax (Tet-On MRGPRX4 1pg/cell, No dox (Fig. S5B), read-out: IP1 Emax): 25%
- Emax (Tet-On MRGPRX4 1pg/cell, No dox (Fig. S5B), read-out: IP1 span): 26.5%
- IP1 Basal (Tet-On MRGPRX4 2pg/cell, Dox 13 ng/mL (Fig. S5A)): 6.149
- EC50 (Tet-On MRGPRX4 2pg/cell, Dox 13 ng/mL (Fig. S5A), read-out: IP1 EC50): 7.35 µM
- Emax (Tet-On MRGPRX4 2pg/cell, Dox 13 ng/mL (Fig. S5A), read-out: IP1 Emax): 84.9%
- EC50 (Tet-On MRGPRX4 2pg/cell, Dox 13 ng/mL (Fig. S5A), read-out: IP1 logEC50 (converted)): 7.35 µM
- Emax (Tet-On MRGPRX4 2pg/cell, Dox 13 ng/mL (Fig. S5A), read-out: IP1 span): 78.8%
- IP1 Basal (Tet-On MRGPRX4 2pg/cell, Dox 40 ng/mL (Fig. S5A)): 7.421
- EC50 (Tet-On MRGPRX4 2pg/cell, Dox 40 ng/mL (Fig. S5A), read-out: IP1 EC50): 6.07 µM
- Emax (Tet-On MRGPRX4 2pg/cell, Dox 40 ng/mL (Fig. S5A), read-out: IP1 Emax): 87.5%
- Emax (Tet-On MRGPRX4 2pg/cell, Dox 40 ng/mL (Fig. S5A), read-out: IP1 span): 80.1%
- IP1 Basal (Tet-On MRGPRX4 2pg/cell, Dox 1100 ng/mL (Fig. S5A)): 11.03
- Emax (Tet-On MRGPRX4 2pg/cell, Dox 1100 ng/mL (Fig. S5A), read-out: IP1 Emax): 101%
- EC50 (Tet-On MRGPRX4 2pg/cell, Dox 1100 ng/mL (Fig. S5A), read-out: IP1 logEC50 (converted)): 5.41 µM
- Emax (Tet-On MRGPRX4 2pg/cell, Dox 1100 ng/mL (Fig. S5A), read-out: IP1 span): 90.4%
- IP1 Basal (Tet-On MRGPRX4 2pg/cell, Dox 3300 ng/mL (Fig. S5A)): 10.81
- EC50 (Tet-On MRGPRX4 2pg/cell, Dox 3300 ng/mL (Fig. S5A), read-out: IP1 EC50): 6.36 µM
- Emax (Tet-On MRGPRX4 2pg/cell, Dox 3300 ng/mL (Fig. S5A), read-out: IP1 Emax): 106%
- Emax (Tet-On MRGPRX4 2pg/cell, Dox 3300 ng/mL (Fig. S5A), read-out: IP1 span): 95.6%
- IP1 logEC50 (Tet-On MRGPRX4 2pg/cell, Dox […] (Fig. S5A)): -5.040
- IP1 Basal (Tet-On MRGPRX4 2pg/cell, No dox (Fig. S5A)): 0.7169
- Emax (Tet-On MRGPRX4 2pg/cell, No dox (Fig. S5A), read-out: IP1 Emax): 72.3%
- Emax (Tet-On MRGPRX4 2pg/cell, No dox (Fig. S5A), read-out: IP1 span): 71.5%
- IP1 Basal (Tet-On MRGPRX4, over 1pg/cell Normalized, Dox 13 ng/mL (Fig. S5C)): -3.443
- EC50 (Tet-On MRGPRX4, over 1pg/cell Normalized, Dox 13 ng/mL (Fig. S5C), read-out: IP1 EC50): 19 µM
- Emax (Tet-On MRGPRX4, over 1pg/cell Normalized, Dox 13 ng/mL (Fig. S5C), read-out: IP1 Emax): 59.2%
- Emax (Tet-On MRGPRX4, over 1pg/cell Normalized, Dox 13 ng/mL (Fig. S5C), read-out: IP1 span): 62.7%
- IP1 Basal (Tet-On MRGPRX4, over 1pg/cell Normalized, Dox 40 ng/mL (Fig. S5C)): -3.289
- EC50 (Tet-On MRGPRX4, over 1pg/cell Normalized, Dox 40 ng/mL (Fig. S5C), read-out: IP1 EC50): 13.5 µM
- Emax (Tet-On MRGPRX4, over 1pg/cell Normalized, Dox 40 ng/mL (Fig. S5C), read-out: IP1 Emax): 63.5%
- Emax (Tet-On MRGPRX4, over 1pg/cell Normalized, Dox 40 ng/mL (Fig. S5C), read-out: IP1 span): 66.8%
- IP1 Basal (Tet-On MRGPRX4, over 1pg/cell Normalized, Dox 1100 ng/mL (Fig. S5C)): -2.284
- EC50 (Tet-On MRGPRX4, over 1pg/cell Normalized, Dox 1100 ng/mL (Fig. S5C), read-out: IP1 EC50): 10.7 µM
- Emax (Tet-On MRGPRX4, over 1pg/cell Normalized, Dox 1100 ng/mL (Fig. S5C), read-out: IP1 Emax): 100%
- Emax (Tet-On MRGPRX4, over 1pg/cell Normalized, Dox 1100 ng/mL (Fig. S5C), read-out: IP1 span): 102%
- IP1 Basal [1]: 3.818
- IP1 logEC50 [1]: -5.036
- EC50 (Tet-On MRGPRX4, over 1pg/cell Normalized, Dox 3300 ng/mL (Fig. S5C), read-out: IP1 EC50): 9.2 µM
- Emax (Tet-On MRGPRX4, over 1pg/cell Normalized, Dox 3300 ng/mL (Fig. S5C), read-out: IP1 Emax): 111%
- Emax (Tet-On MRGPRX4, over 1pg/cell Normalized, Dox 3300 ng/mL (Fig. S5C), read-out: IP1 span): 107%
- IP1 Basal (Tet-On MRGPRX4, over 1pg/cell Normalized, No dox (Fig. S5C)): -1.726
- Emax (Tet-On MRGPRX4, over 1pg/cell Normalized, No dox (Fig. S5C), read-out: IP1 Emax): 55.6%
- Emax (Tet-On MRGPRX4, over 1pg/cell Normalized, No dox (Fig. S5C), read-out: IP1 span): 57.3%
- IP1 Basal (Tet-On MRGPRX4:RAMP Ratio 1:0 (Fig. S5D-F)): 8.926
- EC50 (Tet-On MRGPRX4:RAMP Ratio 1:0 (Fig. S5D-F), read-out: IP1 EC50): 4.06 µM
- Emax (Tet-On MRGPRX4:RAMP Ratio 1:0 (Fig. S5D-F), read-out: IP1 Emax): 107%
- Emax (Tet-On MRGPRX4:RAMP Ratio 1:0 (Fig. S5D-F), read-out: IP1 span): 97.7%
- IP1 Basal (Tet-On MRGPRX4:RAMP Ratio 1:0, no dox (Fig. S5D-F)): 0.2822
- Emax (Tet-On MRGPRX4:RAMP Ratio 1:0, no dox (Fig. S5D-F), read-out: IP1 Emax): 2.46%
- Emax (Tet-On MRGPRX4:RAMP Ratio 1:0, no dox (Fig. S5D-F), read-out: IP1 span): 2.17%
- IP1 Basal (construct FLAG-MRGPRX4-1D4 (Fig. S4A-F)): 6.903
- EC50 (construct FLAG-MRGPRX4-1D4 (Fig. S4A-F), read-out: IP1 EC50): 10.1 µM
- Emax (construct FLAG-MRGPRX4-1D4 (Fig. S4A-F), read-out: IP1 Emax): 102%
- Emax (construct FLAG-MRGPRX4-1D4 (Fig. S4A-F), read-out: IP1 span): 95.1%
- IP1 Basal (construct FLAG-MRGPRX4-GFP10-1D4 (Fig. S4A-F)): 7.722
- EC50 (construct FLAG-MRGPRX4-GFP10-1D4 (Fig. S4A-F), read-out: IP1 EC50): 9.91 µM
- Emax (construct FLAG-MRGPRX4-GFP10-1D4 (Fig. S4A-F), read-out: IP1 Emax): 110%
- Emax (construct FLAG-MRGPRX4-GFP10-1D4 (Fig. S4A-F), read-out: IP1 span): 102%
- IP1 Basal (construct FLAG-NLuc-HT7-MRGPRX4-GFP10-1D4 (Fig. S4A-F)): 8.575
- EC50 (construct FLAG-NLuc-HT7-MRGPRX4-GFP10-1D4 (Fig. S4A-F), read-out: IP1 EC50): 6.41 µM
- Emax (construct FLAG-NLuc-HT7-MRGPRX4-GFP10-1D4 (Fig. S4A-F), read-out: IP1 Emax): 55.2%
- Emax (construct FLAG-NLuc-HT7-MRGPRX4-GFP10-1D4 (Fig. S4A-F), read-out: IP1 span): 46.6%
- IP1 Basal (construct HA-MRGPRX4-1D4 (Fig. S4A-F)): 13.13
- EC50 (construct HA-MRGPRX4-1D4 (Fig. S4A-F), read-out: IP1 EC50): 10.7 µM
- Emax (construct HA-MRGPRX4-1D4 (Fig. S4A-F), read-out: IP1 Emax): 91.5%
- Emax (construct HA-MRGPRX4-1D4 (Fig. S4A-F), read-out: IP1 span): 78.4%
- IP1 accumulation (normalized) (log [nateglinide] (M) -4, MRGPRX4 no dox): 1.452
- IP1 accumulation (normalized) (log [nateglinide] (M) -4.69897, MRGPRX4): 92.3953
- IP1 accumulation (normalized) (log [nateglinide] (M) -5.39794, MRGPRX4): 57.3306
- IP1 accumulation (normalized) (log [nateglinide] (M) -6.09691, MRGPRX4): 20.5565
- IP1 accumulation (normalized) (log [nateglinide] (M) -6.79588, MRGPRX4): 15.0154
- IP1 accumulation (normalized) (log [nateglinide] (M) -7.49485, MRGPRX4): 11.7498
